Measurements as given in patent US20260258032A1, “TYROSINE KINASE 2 INHIBITORS AND USES THEREOF” (BIOGEN MA INC., priority 2022, published 2026).
pIC50: −log10 of the molar value. Where a name gives a salt, the structure may show the parent alone.

Legend:
[1] = test system: JAK1 kinase activity on STAT3; assay: pSTAT3 cell assay (MSD, TF1 cells, IL-6 stimulated); format: cell-based; settings: Homo sapiens, TF-1, compounds 1 hour, 30 ng/mL IL-6 for 15 minutes
Description: The inhibitory potency of compounds of the disclosure against the JAK1 kinase activity on STAT3 was evaluated using an MSD-platform plate-based assay format. TF1 cells natively expressing STAT3 and JAK1 were serum-starved to reduce background phosphorylation levels, then cells were treated with compounds of the disclosure for 1 hour with a 10-point four-fold dilution series starting at 10 μM. Cells were then stimulated with 30 ng/mL interleukin 6 (IL-6) for 15 minutes. Cells were lysed and pSTAT3 levels were quantitated using an MSD plate-based assay with anti-STAT3 antibodies. The data were normalized and the percent activity versus log concentration of compound was fitted with a 4-parameter logistic model to generate IC50 curves.

[2] = test system: Tyk2 kinase activity on STAT4; assay: pSTAT4 cell assay (MSD, NK92 cells); format: cell-based; settings: compounds 1 hr
In short: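 Compound treatment of starved NK92 cells ran 1 hr before a 15-minute, 30 ng/mL IL2 pulse; lysates went to an MSD anti-STAT4 antibody assay, with curves fitted by 4-parameter logistic model.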

[3] = target: T1, JH2 domain of human Tyk2 (Homo sapiens, UniProt P29597); assay: JH2 biochemical assay (TR-FRET probe displacement); format: binding
T1 construct: 10×His-tagged TYK2 JH2 domain (amino acid 575-876)
In short: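 A probe-displacement TR-FRET readout: compounds, tested in 3-fold, 10-point dilutions starting at […], compete with 2 nM tracer for 2 nM His-tagged JH2 (residues 575-876) detected by 0.1 nM Tb-anti-His over 60 min. IC50 comes from 4-parameter fits of normalized 520/495 nm ratios.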

[4] = test system: JAK2 kinase activity on STAT5; assay: pSTAT5 cell assay (MSD, TF1 cells, IL-3 stimulated); format: cell-based; settings: Homo sapiens, TF-1, compounds 1 hour, 30 ng/mL IL-3 for 15 minutes
Description: Compounds of the disclosure were assessed for their ability to inhibit the JAK2 kinase activity on STAT5 utilizing an MSD-platform plate-based assay format. TF1 cells natively expressing STAT5 and JAK2 were serum-starved to reduce background phosphorylation levels, then cells were treated with compounds of disclosure for 1 hour with a 10-point four-fold dilution series starting at 10 μM. Cells were then stimulated with 30 ng/mL IL-3 for 15 minutes. Cells were then lysed and pSTAT5 levels were quantitated using an MSD plate-based assay with anti-STAT5 antibodies. The data were normalized and the percent activity versus log concentration of compound was fitted with a 4-parameter logistic model to generate a curve and an IC50 value.

[5] = TR-FRET probe displacement, JH2 domain of human Tyk2

T1 sequence (P29597 575-876): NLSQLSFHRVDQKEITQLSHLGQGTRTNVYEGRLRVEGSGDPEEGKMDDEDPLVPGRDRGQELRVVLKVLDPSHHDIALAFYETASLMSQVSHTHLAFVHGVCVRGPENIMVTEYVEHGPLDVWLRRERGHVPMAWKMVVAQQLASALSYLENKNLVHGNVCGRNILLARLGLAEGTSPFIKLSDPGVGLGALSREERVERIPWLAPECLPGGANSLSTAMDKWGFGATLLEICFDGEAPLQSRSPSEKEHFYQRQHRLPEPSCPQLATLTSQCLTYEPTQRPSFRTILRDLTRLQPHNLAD

SMILES	pIC50 [1]	pIC50 ([2]; stimulated 15 minutes)	pIC50 ([3]; JH2 biochemical assay)	pIC50 [4]	pIC50 ([2]; then stimulated 15 minutes)	pIC50 [3, 5]
COc1cc(N2CC3(CC3)c3cnc(NC(C)=O)cc32)nc(C(C)(F)F)n1 [Example 1, N-(1′-(2-(1,1-difluoroethyl)-6-methoxypyrimidin-4-yl)-1′,2′-dihydrospiro[cyclopropane-1,3′-pyrrolo[3,2-c]pyridin]-6′-yl)acetamide]	≤ 6.00	6.00 to 7.00	≥ 8.00	≤ 6.00		
COc1cc(C(C)(F)F)nc(N2CC3(CC3)c3cnc(NC(C)=O)cc32)n1 [Example 2, N-(1′-(4-(1,1-difluoroethyl)-6-methoxypyrimidin-2-yl)-1′,2′-dihydrospiro[cyclopropane-1,3′-pyrrolo[3,2-c]pyridin]-6′-yl)acetamide]	≤ 6.00	6.00 to 7.00	≥ 8.00	≤ 6.00		
COc1cc(N2CC3(CC3)c3cnc(NC(C)=O)cc32)nc(C(C)(F)F)c1 [Example 9, N-(1′-(6-(1,1-difluoroethyl)-4-methoxypyridin-2-yl)-1′,2′-dihydrospiro[cyclopropane-1,3′-pyrrolo[3,2-c]pyridin]-6′-yl)acetamide]	≤ 6.00	7.00 to 8.00	≥ 8.00	≤ 6.00		
CNc1cc(N2CC3(CC3)c3cnc(NC(C)=O)cc32)nc(C(C)(F)F)n1 [Example 10, N-(1′-(2-(1,1-difluoroethyl)-6-(methylamino)pyrimidin-4-yl)-1′,2′-dihydrospiro[cyclopropane-1,3′-pyrrolo[3,2-c]pyridin]-6′-yl)acetamide]	≤ 6.00	7.00 to 8.00	≥ 8.00	≤ 6.00		
CCc1cc(N2CC3(CC3)c3cnc(NC(C)=O)cc32)nc(C(C)(F)F)n1 [Example 11, N-(1′-(2-(1,1-difluoroethyl)-6-ethylpyrimidin-4-yl)-1′,2′-dihydrospiro[cyclopropane-1,3′-pyrrolo[3,2-c]pyridin]-6′-yl)acetamide]	≤ 6.00	7.00 to 8.00	≥ 8.00	≤ 6.00		
CC(=O)Nc1cc2c(cn1)C1(CC1)CN2c1cccc(C(C)(F)F)n1 [Example 12, N-(1′-(6-(1,1-difluoroethyl)pyridin-2-yl)-1′,2′-dihydrospiro[cyclopropane-1,3′-pyrrolo[3,2-c]pyridin]-6′-yl)acetamide]	≤ 6.00	7.00 to 8.00	≥ 8.00	≤ 6.00		
CC(=O)Nc1cc2c(cn1)C1(CC1)CN2c1ccnc(C(C)(F)F)n1 [Example 13, N-(1′-(2-(1,1-difluoroethyl)pyrimidin-4-yl)-1′,2′-dihydrospiro[cyclopropane-1,3′-pyrrolo[3,2-c]pyridin]-6′-yl)acetamide]	≤ 6.00	6.00 to 7.00	7.00 to 8.00	≤ 6.00		
CC(=O)Nc1cc2c(cn1)C1(CC1)CN2c1nccc(C(C)(F)F)n1 [Example 14, N-(1′-(4-(1,1-difluoroethyl)pyrimidin-2-yl)-1′,2′-dihydrospiro[cyclopropane-1,3′-pyrrolo[3,2-c]pyridin]-6′-yl)acetamide]	≤ 6.00	6.00 to 7.00	7.00 to 8.00	≤ 6.00		
CC(=O)Nc1cc2c(cn1)C1(CC1)CN2c1cccc(C2CCOC2)n1 (stereo not drawn) [Example 16, N-(1′-(6-(tetrahydrofuran-3-yl)pyridin-2-yl)-1′,2′-dihydrospiro[cyclopropane-1,3′-pyrrolo[3,2-c]pyridin]-6′-yl)acetamide]	≤ 6.00	7.00 to 8.00	≥ 8.00	≤ 6.00		
CC(=O)Nc1cc2c(cn1)C1(CC1)CN2c1ccnc(C(C)(C)F)n1 [Example 17, N-(1′-(2-(2-fluoropropan-2-yl)pyrimidin-4-yl)-1′,2′-dihydrospiro[cyclopropane-1,3′-pyrrolo[3,2-c]pyridin]-6′-yl)acetamide]	≤ 6.00	6.00 to 7.00	≥ 8.00	≤ 6.00		
COC1(c2cccc(N3CC4(CC4)c4cnc(NC(C)=O)cc43)n2)CCOC1 (stereo not drawn) [Example 18, N-(1′-(6-(3-methoxytetrahydrofuran-3-yl)pyridin-2-y1)-1′,2′-dihydrospiro[cyclopropane-1,3′-pyrrolo[3,2-c]pyridin]-6′-yl)acetamide]	≤ 6.00	7.00 to 8.00	≥ 8.00	≤ 6.00		
CC(=O)Nc1cc2c(cn1)C1(CC1)CN2c1cccc(C2(O)CCOC2)n1 (stereo not drawn) [Example 19, N-(1′-(6-(3-hydroxytetrahydrofuran-3-yl)pyridin-2-yl)-1′,2′-dihydrospiro[cyclopropane-1,3′-pyrrolo[3,2-c]pyridin]-6′-yl)acetamide]	≤ 6.00	7.00 to 8.00	≥ 8.00	≤ 6.00		
CC(=O)Nc1cc2c(cn1)C1(CC1)CN2c1cc(C2CC2)nc(C(C)(F)F)n1 [Example 21, N-(1′-(6-cyclopropyl-2-(1,1-difluoroethyl)pyrimidin-4-yl)-1′,2′-dihydrospiro[cyclopropane-1,3′-pyrrolo[3,2-c]pyridin]-6′-yl)acetamide]	≤ 6.00	7.00 to 8.00	≥ 8.00	≤ 6.00		
CC(=O)Nc1cc2c(cn1)CCN2c1cccc(C(C)(F)F)n1 [Example 32, N-(1-(6-(1,1-difluoroethyl)pyridin-2-yl)-2,3-dihydro-1H-pyrrolo[3,2-c]pyridin-6-yl)acetamide]	≤ 6.00	≤ 6.00	7.00 to 8.00	≤ 6.00		
CC(=O)Nc1cc2c(cn1)C1(CC1C)CN2c1ccnc(C(C)(F)F)n1 (stereo not drawn) [Example 37, N-(1′-(2-(1,1-difluoroethyl)pyrimidin-4-yl)-2-methyl-1′,2′-dihydrospiro[cyclopropane-1,3′-pyrrolo[3,2-c]pyridin]-6′-yl)acetamide]	≤ 6.00	≤ 6.00	7.00 to 8.00	≤ 6.00		
CC(=O)Nc1cc2c(cn1)C1(CCN(C)CC1)CN2c1cccc(C(C)(F)F)n1 [Example 276, N-(1′-(6-(1,1-difluoroethyl)pyridin-2-yl)-1-methyl-1′,2′-dihydrospiro[piperidine-4,3′-pyrrolo[3,2-c]pyridin]-6′-yl)acetamide trifluoroacetate]	≤ 6.00		≤ 6.00	≤ 6.00		
CC(=O)Nc1cc2c(cn1)C1(CC1)CN2c1cc(C)nc(N2CC[C@H](C#N)C2)n1 [Example 408, (S)-N-(1′-(2-(3-cyanopyrrolidin-1-yl)-6-methylpyrimidin-4-yl)-1′,2′-dihydrospiro[cyclopropane-1,3′-pyrrolo[3,2-c]pyridin]-6′-yl)acetamide]					6.00 to 7.00	7.00 to 8.00
CC(=O)Nc1cc2c(cn1)C1(CC1)CN2c1cc(C)nc(N2CCC(C)(C#N)C2)n1 (stereo not drawn) [Example 409, N-(1′-(2-(3-cyano-3-methylpyrrolidin-1-yl)-6-methylpyrimidin-4-yl)-1′,2′-dihydrospiro[cyclopropane-1,3′-pyrrolo[3,2-c]pyridin]-6′-yl)acetamide]					≤ 6.00	7.00 to 8.00
CC(=O)Nc1cc2c(cn1)C1(CC1)CN2c1cc(C)nc(N2CC(CC(C)C)C2)n1 [Example 410, N-(1′-(2-(3-isobutylazetidin-1-yl)-6-methylpyrimidin-4-yl)-1′,2′-dihydrospiro[cyclopropane-1,3′-pyrrolo[3,2-c]pyridin]-6′-yl)acetamide trifluoroacetate]					6.00 to 7.00	≤ 6.00
